These results are taken from patent publication EP2878292A2, “Application of cosmetic compositions for the inactivation and/or elimination of skin mites” (Henkel AG & Co. KGaA, priority 2013, dated 2015).

The test system of this series is Haustaubmilben. Format: in vivo. On the procedure: Die zu testende Substanz wurde mit Wasser auf die vorgesehene Einsatzkonzentration verdünnt (s.u.). Haustaubmilben, die aufgrund ihrer großen Ähnlichkeit als Vergleich zu Haarbalgmilben (Demodex) verwendet werden, wurden aus ihrem Futter isoliert und auf 1,5 cm x 1,5 cm große Filterpapierstücke übertragen. Etwa 100 Milben je Ansatz wurden mit 50 µl der zu testenden Substanzen in den vorhergesehenen Verdünnungen betropft. Die überschüssige Flüssigkeit wurde nach 10 Sekunden abgesaugt. Die noch feuchten Filterpapiere mit den Milben wurden nach der Behandlung in eine Petrischale gebracht, die mit einem Deckel und einer Umrandung mit Paraffin verschlossen wurden, um sicherzustellen, dass evtl. überlebende Milben nicht entweichen können. Die Milben können nach Beginn einer Behandlung - gleichgültig mit welchem Mittel - unbeweglich werden, sich jedoch später wieder erholen und ihre Beweglichkeit zumindest für kurze Zeit wiedererlangen. Andererseits ist es auch möglich, dass Milben in den ersten Stunden nach einer Behandlung noch vital erscheinen, jedoch bereits so stark geschädigt sind, dass sie innerhalb eines Tages bis zu 2-3 Tagen sterben. Daher wurden die Petrischalen für einen Tag aufbewahrt, und die Milben dann erst auf ihre Vitalität bewertet.
Die Anzahl der toten und lebenden Milben wurde bestimmt und in % der Sterberate umgerechnet.
Die Versuche wurden zweifach durchgeführt. […]

Molecules are shown by their SMILES.

Take `CCCCCCCCC(O)CO` (centres unmarked) [Symclariol, 1,2-Decanediol]: the “Inaktivierung bzw. Eliminierung von Milben” value (conclusion in words drawn from the test at 2%) is listed as “wirksam”. In addition, under “house dust mite, in vivo, topical, 24 h”, the “Sterberate (Mittelwert)” value was 10,9%.
